From paper PMC4977052, “On the Utility of ToxCast™ and ToxPi as Methods for Identifying New Obesogens” (Environmental Health Perspectives, 2016)
Where “and” joins values, the source holds several entries; their conditions need not be identical. Equal values may be shown once. Read-outs that look alike come from different tables or passages of the source.

Legend:
GAL4-mPPARγ [1] = target: T1, GAL4-mPPARγ (Mus musculus, UniProt P37238); experiment: GAL4-mPPARγ activation, transient transfection luciferase reporter in COS7 cells; assay type: cell-based
T1 construct: expressed in transfected cells; host or cells: COS7
T1 sequence (P37238 with tags, fused parts or gaps limits assumed): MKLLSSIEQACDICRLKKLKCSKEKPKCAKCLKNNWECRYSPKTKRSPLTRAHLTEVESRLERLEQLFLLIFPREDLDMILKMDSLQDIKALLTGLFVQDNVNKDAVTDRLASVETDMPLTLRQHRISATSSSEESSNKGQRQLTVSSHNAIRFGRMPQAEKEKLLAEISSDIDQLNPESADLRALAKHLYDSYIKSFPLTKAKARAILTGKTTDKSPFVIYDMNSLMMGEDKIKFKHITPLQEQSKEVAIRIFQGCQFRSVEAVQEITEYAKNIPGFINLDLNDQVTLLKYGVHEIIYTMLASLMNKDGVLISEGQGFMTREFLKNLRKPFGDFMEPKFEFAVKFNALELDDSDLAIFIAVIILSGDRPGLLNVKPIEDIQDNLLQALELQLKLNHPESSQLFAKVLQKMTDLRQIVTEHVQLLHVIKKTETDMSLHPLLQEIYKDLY
Procedure: (§1) pCMX-Gal4, pCMX-Gal4-mPPARγ, and pCMX-Gal4-hRXRα were previously described ([Grün et al. 2006]). Transient transfections were performed in COS7 cells as described ([Chamorro-García et al. 2012]). Briefly, COS7 cells were seeded at 15,000 cells per well in 96-well tissue culture plates in 10% calf bovine serum. The following day, cells were transfected in Opti-MEM at ~ 90% confluency. One microgram of CMX-GAL4 effector plasmid was co-transfected with 5 μg tk-(MH100)4-luciferase reporter and 5 μg of CMX-β-galactosidase transfection control plasmids in Opti-MEM® using Lipofectamine® 2000 reagent (Invitrogen™ Life Technologies, Carlsbad, CA, USA), following the manufacturer’s recommended protocol. All chemicals were solvated in dimethyl sulfoxide (DMSO). After overnight incubation, the medium was replaced with Dulbecco’s Modified Eagle Medium (DMEM; HyClone, Logan, UT, USA), 10% resin charcoal stripped fetal bovine serum (FBS) plus ligands at concentrations indicated in the figure legends for an additional 24 hr. DMSO concentration was maintained at 0.05% across all chemical treatments. Cells were lysed and assayed for luciferase and β-galactosidase activity as previously described ([Forman et al. 1995]). All transfections were performed in triplicate and reproduced in multiple experiments. Data are reported as fold induction or reduction over vehicle ([…]) controls ± SEM (standard error of the mean) using standard propagation of error ([Bevington and Robinson 2003]). […] The EC50, EC10, IC50, and IC10 values from NCGC and ToxCast™ are reported from gain AC50 and AC10 values in the ToxCast™ 2014 release ([Filer et al. 2014]).
(§2) Figure 1 ToxCast™ Chemical Activity on PPARγ. The ability of a graded dose series of ToxCast™ chemicals to (A) activate or (B) antagonize GAL4-mPPARγ was tested in transiently transfected COS7 cells. (A, B) Data points are averages of triplicate transfections (three biological replicates). […] Data are depicted as (A) fold induction or (B) reduction over vehicle (0.05% DMSO) controls ± SEM. (A) ToxCast™ chemicals were tested in 3-fold serial dilutions from 100 μM through 0.137 μM, with the final data point being 0.05% DMSO. Rosiglitazone serves as a positive control activator. (B) ToxCast™ chemicals were tested in 3-fold serial dilutions from 100 μM, in competition with 50 nM rosiglitazone (Rosi). […] (C) EC50, EC10, IC50, and IC10 values calculated from A and B are reported and compared to commercial assays (see Figure S1). Note: ATG, Attagene GAL-PPARγ activation assay; NCGC, GeneBLAzer® agonist (EC values) or antagonist (IC values) assays. Triphenyltin was previously published ([Kanayama et al. 2005]).
Figure 4 ToxPi Chemical Activity on PPARγ and RXRα. The ability of a graded dose series of ToxPi chemicals to activate (A) GAL4-mPPARγ or (B) GAL4-hRXRα was tested in transiently transfected COS7 cells. (A, B) Data points are averages of triplicate transfections (three biological replicates). […] ToxPi chemicals were tested in 3-fold serial dilutions from 100 μM through 0.137 μM, with the final data point being 0.05% DMSO. Data are depicted as fold induction over vehicle (0.05% DMSO) controls ± SEM. (A) Rosiglitazone serves as a positive control activator for GAL4-mPPARγ. (B) LG100268 (2-[1-(3,5,5,8,8-Pentamethyl-5,6,7,8-tetrahydro-2-naphthyl)cyclopropyl]pyridine-5-carboxylic acid) serves as a positive control activator for GAL4-hRXRα. (C) EC50 and EC10 values calculated from A and B are reported and compared to other assays (see Figure S1). ATG, Attagene GAL-PPARγ or GAL-RXRα activation assay; NCGC, GeneBLAzer® GAL-PPARγ or GAL-RXRα activation assays. Triphenyltin was previously published ([Kanayama et al. 2005]).

PPARγ [2] = conditions: cited from earlier work
PPARγ [3] = conditions: ref Filer et al. 2014, cited from earlier work
PPARγ [4] = system: PPARγ; design: method as in Filer et al. 2014; conditions: ref Filer et al. 2014, cited from earlier work; for AC50: PPARγ, NA = not active, read-out: NCGC Antag. AC50, 2014 Release
Human PPARγ = conditions: cited from earlier work
3T3-L1 preadipocytes = experiment: 3T3-L1 adipogenesis assay (lipid accumulation, adipogenic gene expression); assay type: cell-based; conditions: 0.02-20 μM, 5 days after MDI induction
Procedure: 3T3-L1 cells (ATCC) were maintained in high-glucose DMEM supplemented with 10% fetal bovine serum, 2 mM L-glutamine, 50 IU/mL penicillin, and 50 μg/mL streptomycin. A total of 2 × 10^4 cells per well were seeded in 12-well plates. After 48 hr, cells were exposed to the adipogenic cocktail MDI (500 μM isobutylmethylxanthine, 0.25 nM dexamethasone and 5 μg/mL insulin), 8 μg/mL biotin and 8 μg/mL pantothenate for 2 days. Induction media was removed and cells were exposed to test chemicals during 5 days, replacing the media every 2 days. Rosiglitazone (ROSI) and tributyltin (TBT) were used as positive controls at 100 nM and 50 nM final concentrations, respectively. All ToxCast™ chemicals were tested at 0.02, 0.2, 2, and 20 μM, and DMSO concentration was maintained at 0.1% across all treatments. If the chemical was toxic at 20 μM, we repeated the experiment at 10 μM.
Cells were either fixed in 3.7% formaldehyde in phosphate-buffered saline (PBS) for 30 min at room temperature (RT) for lipid quantitation, or homogenized in TriPure (Roche, Mannheim, Germany) for gene expression analysis. For lipid quantitation, fixed cells were washed twice with PBS and maintained in PBS overnight at 4°C to release residual phenol red. Background of cells were measured prior to staining. Cells were stained with 1 μg/mL Nile red (CAS No. 7385-67-3) (to detect lipid accumulation) and 1 μg/mL Hoechst 33342 (ThermoFisher Scientific) (to detect nuclei as a surrogate for cell number) in PBS for 15 min in the dark at RT and washed twice with PBS. […] Background values of Hoechst and Nile red were subtracted from the RFUs after staining and the ratio RFUNile Red:RFUHoechst was calculated. Data are represented as mean ± SEM. Total RNA was isolated using TriPure (Roche) as recommended by the manufacturer. Reverse transcription and quantitative real-time RT-PCR (QPCR) were performed using Transcriptor RT and SYBR® Green Master Mix (Roche). cDNA was quantitated in a LightCycler® 480 System (Roche Diagnostics, Basel, Switzerland) using primer sets listed in Table S4. Each primer set amplified a single band as determined by gel electrophoresis and melting curve analysis. QPCR data were analyzed using the 2^ΔΔCt method ([Livak and Schmittgen 2001]) relative to ribosomal protein 36b4, normalizing to 0.1% DMSO vehicle. Error bars represent the SEM from four to six biological replicates calculated using standard propagation of error ([Bevington and Robinson 2003]).

GAL4-mPPARγ [5] = target: T1, GAL4-mPPARγ; experiment: GAL4-mPPARγ antagonism in competition with 50 nM rosiglitazone, transiently transfected COS7 cells; assay type: cell-based
Procedure: as §1, §2

[6] = Cos-7 transient transfection, PPARγ activation or antagonism assays (Table 1, Table S6)
[7] = PPARγ, NA = not active, ref Filer et al. 2014, read-out: ATG Agonist AC50, 2014 Release
[8] = PPARγ, NA = not active, ref Knudsen et al. 2011, read-out: ATG Agonist AC50, 2011 Release
[9] = ToxCast 2014 release, ref Filer et al. 2014, read-out: Attagene AC50 (panel A, w/o Z-Score Correction ranking)
[10] = PPARγ, NA = not active, read-out: NCGC Agonist AC50, 2014 Release
[11] = PPARγ direct binding, NA = not active, ref Filer et al. 2014, read-out: NVS Agonist AC50, 2014 Release
[12] = Cos-7 transient transfection, PPARγ or RXRα activation assays (Table 2)

Structure (SMILES)	AC50 (PPARγ [2]; [7])	AC50 (PPARγ [2]; [8])	AC50 (PPARγ [4])	Activation COS7 (result in words), ToxCast PPARγ list (GAL4-mPPARγ [1])	Adipogenesis 3T3-L1 (result in words) (3T3-L1 preadipocytes)	also measured
O=C(Nc1ccc([N+](=O)[O-])cc1Cl)c1cc(Cl)ccc1O [Niclosamide]	0.56 µM	0.56 µM	35.9 µM			Activation COS7 (result in words), ToxCast PPARγ list (GAL4-mPPARγ [1]; [6]): Inactive; AC50 (PPARγ [2]; [9]): 0.6 µM; AC50 (PPARγ [3]; [10]): 29.9 µM
CCc1ccc(C(=O)NN(C(=O)c2cc(C)cc(C)c2)C(C)(C)C)cc1 [Tebufenozide]	7.6 µM	6.3 µM	50.8 µM	Inactive		
CCCN(CCOc1c(Cl)cc(Cl)cc1Cl)C(=O)n1ccnc1 [Prochloraz]		3.5 µM	81.5 µM			Activation COS7 (result in words), ToxCast PPARγ list (GAL4-mPPARγ [1]; [6]): Inactive; AC50 (Human PPARγ; [11]): 27.5 µM
COC(=O)NS(=O)(=O)c1ccc(N)cc1 [Asulam]					Negative	Activation COS7 (result in words), ToxPi chemicals (GAL4-mPPARγ [1]; [12]): Inactive
CCOCN(C(=O)CCl)c1c(C)cccc1CC [Acetochlor]	1.5 µM	1.7 µM	4.5 µM		Negative	Activation of GAL4-PPARγ (text) (GAL4-mPPARγ [1]; COS7, 100 μM through 0.137 μM): did not activate PPARγ; AC50 (GAL4-mPPARγ [5]; Activation AC50 (PPARγ antagonists), Cos-7 transient transfection, competition with 50 nM rosiglitazone): 46.7 µM; Antagonism of PPARγ (GAL4-mPPARγ [5]; COS7, competition against 50 nM rosiglitazone): weak antagonists; IC50 (GAL4-mPPARγ [5]; COS7, in competition with 50 nM rosiglitazone): 46.7 µM; PPARγ antagonists: IC10, Fig 1B (GAL4-mPPARγ [5]; COS7, in competition with 50 nM rosiglitazone, computed from IC50): 9.54 µM; Activation COS7 (result in words): PPARγ antagonist (GAL4-mPPARγ [5]; Cos-7 transient transfection, competition with 50 nM rosiglitazone): PPARγ antagonist; PPARγ antagonists: IC10, NCGC (PPARγ [4]; AC10, ToxCast 2014 release): 0.42 µM; IC50 (PPARγ [4]; read-out: PPARγ antagonists: IC50, NCGC, gain AC50, ToxCast 2014 release): 4.5 µM
CCCCOCN(C(=O)CCl)c1c(CC)cccc1CC [Butachlor]	2 µM	2.1 µM	26.4 µM			
COC(=O)N(C(=O)N1CO[C@@]2(C(=O)OC)Cc3cc(Cl)ccc3C2=N1)c1ccc(OC(F)(F)F)cc1 [Indoxacarb]	6.1 µM	8.5 µM	10.7 µM	Inactive		AC50 (PPARγ [3]; [10]): 44.1 µM
O=S(=O)(O)C(F)(F)C(F)(F)C(F)(F)C(F)(F)C(F)(F)C(F)(F)C(F)(F)C(F)(F)F [PFOS, perfluorooctanesulfonic acid]					Negative	Activation COS7 (result in words), ToxPi chemicals (GAL4-mPPARγ [1]; [12]): Inactive; AC50 (PPARγ [2]; ToxCast Phase I 2011 release, NA = not active, ref Knudsen et al. 2011, read-out: ATGT PPARγ AC50): 26 µM; AC50 (Human PPARγ; direct binding, ToxCast Phase I 2011 release, NA = not active, ref Knudsen et al. 2011, read-out: NVS PPARγ AC50): 16 µM
C/C(=N\C#N)N(C)Cc1ccc(Cl)nc1 [Acetamiprid]					Positive	Activation COS7 (result in words), ToxPi chemicals (GAL4-mPPARγ [1]): Inactive; Adipogenesis 3T3-L1 (result in words) (3T3-L1 preadipocytes; listed as acetamiprid): promoted adipogenesis
CNC(=O)/C=C(\C)OP(=O)(OC)OC [Monocrotophos]					Negative	Activation COS7 (result in words), ToxPi chemicals (GAL4-mPPARγ [1]; [12]): Inactive; AC50 (PPARγ [2]; [9]): 2.2 µM; AC50 (Human PPARγ; direct binding, ToxCast 2014 release, ref Filer et al. 2014, read-out: NovaScreen AC50 (panel A)): 20.8 µM; AC50 (PPARγ [3]; ToxCast 2014 release, read-out: Tox21/NCGC AC50 (panel A)): 67.5 µM
COCC(C)N(C(=O)CCl)c1c(C)csc1C (stereo not shown) [Dimethenamid]	4.6 µM	5.6 µM	21.4 µM	Inactive		
COc1ccc(C(=CC(=O)N2CCOCC2)c2ccc(Cl)cc2)cc1OC [Dimethomorph]	9.4 µM and 10.1 µM	11 µM	32.3 µM	Inactive		AC50 (Human PPARγ; [11]): 9.6 µM
COC(=O)N(OC)c1ccccc1COc1ccn(-c2ccc(Cl)cc2)n1 [Pyraclostrobin]	0.61 µM	0.76 µM	0.7 µM	Inactive		
N#Cc1c(Cl)c(Cl)c(Cl)c(C#N)c1Cl [Chlorothalonil]			0.9 µM	Inactive		ATG Agonist AC50, 2011 Release (PPARγ [2]; PPARγ, NA = not active, ref Knudsen et al. 2011): negative; AC50 (Human PPARγ; [11]): 0.46 µM; AC50 (Human PPARγ; PPARγ direct binding, NA = not active, ref Knudsen et al. 2011, read-out: NVS Agonist AC50, 2011 Release): 0.6 µM; AC50 (PPARγ [3]; [10]): 82.8 µM
